# Laboratory results as given in US10221426B2, “Constitutively active PYR/PYL receptor proteins for improving plant stress tolerance” (The Regents of the University of California, priority 2009, dated 2019).
# Molecular target: T1, PYL4 and HAB1 (Arabidopsis thaliana, UniProt O80920)
# T1 construct: vector pHB3; made in house
# T1 sequence (O80920 1-207): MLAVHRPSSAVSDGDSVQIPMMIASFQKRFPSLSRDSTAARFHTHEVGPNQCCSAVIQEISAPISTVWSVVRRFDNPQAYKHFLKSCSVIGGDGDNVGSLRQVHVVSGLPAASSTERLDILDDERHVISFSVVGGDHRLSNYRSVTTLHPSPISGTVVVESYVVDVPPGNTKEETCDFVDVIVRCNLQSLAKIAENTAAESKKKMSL
# T1 sequence (Q9CAJ0 23-511 partner): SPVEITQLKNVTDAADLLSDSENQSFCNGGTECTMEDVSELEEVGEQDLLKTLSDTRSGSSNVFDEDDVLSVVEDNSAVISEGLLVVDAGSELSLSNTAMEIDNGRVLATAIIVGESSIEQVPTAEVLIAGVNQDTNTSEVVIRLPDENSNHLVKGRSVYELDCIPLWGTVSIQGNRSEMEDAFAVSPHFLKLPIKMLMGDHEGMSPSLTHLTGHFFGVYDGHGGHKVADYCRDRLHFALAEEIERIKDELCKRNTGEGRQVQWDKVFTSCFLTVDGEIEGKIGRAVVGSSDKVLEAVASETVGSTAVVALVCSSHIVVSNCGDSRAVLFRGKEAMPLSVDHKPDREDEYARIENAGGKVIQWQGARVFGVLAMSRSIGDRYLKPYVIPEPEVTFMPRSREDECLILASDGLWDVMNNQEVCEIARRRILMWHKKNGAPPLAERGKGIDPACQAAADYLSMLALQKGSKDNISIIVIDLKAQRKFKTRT
# Assay: In vitro pull down assay of refolded PYL4 with HAB1
# Assay type: binding
# Experimental: To explore the functional implications of the PYR1-PP2C interaction, we examined if an ABA response could be reconstituted in vitro. Recombinant GST-HAB1, GST-ABI1 and GST-ABI2 were expressed in E. coli and tested for ligand-dependent interactions with 6×His-PYR1 in pull-down assays. Purified 6×His-PYR1 and GST-HAB1 (20 and 100 μg respectively, 8 μM PYR1 final concentration), were combined in 100 μl TBS containing 10 μM (+)-ABA or 1% DMSO for negative control. The reaction was incubated for 90 minutes at RT and 5 μl of PrepEase (USB) His-tagged protein purification resin was added. The resin and reaction mixture was incubated 30 min at RT with gentle shaking at 5 min intervals. The resin was washed five times with TBS containing 10 μM (+)-ABA. After the final wash, the bound protein was eluted in 20 μl SDS-PAGE buffer, boiled for 5 minutes and centrifuged. 5 μl of eluate was analyzed on SDS-PAGE. For pull-downs with ABI1 and ABI2, crude lysates were used in a similar method, except purified PP2C was replaced with cleared E. coli lysates. The amount of lysate added was determined by SDS-page analysis to yield ˜100 μg PP2C, such that the same stoichiometry was used as in assays using purified proteins.
# A PYL4 6×His-tagged (SEQ ID NO:141) protein was constructed using a public pUni clone. This was recombined into the His-tagged expression vector pHB3. […]
smiles,measurement,value
"CC1=CC(=O)CC(C)(C)[C@@]1(O)/C=C/C(C)=C\C(=O)O [ABA, Abscisic acid]",PYL4 binding to HAB1 in pull down,binds HAB1 in response to ABA
